Read-outs that look alike come from different tables or passages of the source.
Key:
Type in all cases: binding
[1] = molecular target: T1, STAT1 (Homo sapiens, UniProt P42224); experiment: Competitive fluorescence polarization (FP) assay, STAT1
T1 sequence (P42224 1-750): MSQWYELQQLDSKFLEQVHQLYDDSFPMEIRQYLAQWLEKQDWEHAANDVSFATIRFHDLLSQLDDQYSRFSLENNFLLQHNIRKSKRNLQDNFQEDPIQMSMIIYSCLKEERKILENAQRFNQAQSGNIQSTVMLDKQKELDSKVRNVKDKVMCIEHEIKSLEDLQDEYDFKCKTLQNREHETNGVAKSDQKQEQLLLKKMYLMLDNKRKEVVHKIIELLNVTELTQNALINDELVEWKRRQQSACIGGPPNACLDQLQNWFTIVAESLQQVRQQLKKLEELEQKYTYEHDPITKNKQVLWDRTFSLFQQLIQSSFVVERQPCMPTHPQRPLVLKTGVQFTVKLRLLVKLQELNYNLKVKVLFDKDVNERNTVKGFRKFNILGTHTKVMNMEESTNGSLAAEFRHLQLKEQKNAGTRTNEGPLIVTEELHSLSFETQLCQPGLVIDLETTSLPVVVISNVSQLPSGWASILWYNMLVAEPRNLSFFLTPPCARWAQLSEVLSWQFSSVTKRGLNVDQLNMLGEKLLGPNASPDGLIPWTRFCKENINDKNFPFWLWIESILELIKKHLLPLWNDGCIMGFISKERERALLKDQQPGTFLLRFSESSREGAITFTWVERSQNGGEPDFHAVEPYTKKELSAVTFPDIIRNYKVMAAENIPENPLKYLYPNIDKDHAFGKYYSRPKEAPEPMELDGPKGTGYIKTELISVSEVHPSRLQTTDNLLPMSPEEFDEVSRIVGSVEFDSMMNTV
Excerpt: Screening of chemical libraries
Screening of chemical libraries comprising approximately 5000 known bioactive compounds in fluorescence polarization-based assays against phosphorylation-dependent protein-protein interaction domains, including STAT proteins, has been described.[1] PPADS was purchased from Sigma-Aldrich, and iso-PPADS from Bio-Techne.
(§1) Fluorescence polarization assays
(§2) Competitive fluorescence polarization (FP) assays for STAT1,[2] STAT3,[3] STAT4,[4] STAT5a,[5] STAT5b[6] and STAT6[1] were performed as previously described. Briefly, peptide binding to proteins was analyzed using the following carboxyfluorescein (CF) -labelled pepti des at a concentration of 10 nM: STAT1: 5-CF-GpYDKPHVL-OH, STAT3: 5-CF-GpYLPQTV -NH2, STAT4: 5-CF-GpYLPQNID-OH, STAT5a and STAT5b: 5-CF-GpYLVLDKW-OH, STAT6: 5- […]
CFGp[…]-OH. Proteins were used at a final concentration representing the approximate Kd value for binding of the corresponding peptide to the protein, namely 65 nM for STAT1, 65 nM for STAT3, 35 nM for STAT4, 125 nM for STAT5a, 65 nM for STAT5b and 75 nM for STAT6. Assays were carried out in buffer containing 10 mM Tris/HCl, 50 mM NaCl, 1 mM EDTA, 0.1% NP-40 substitute and 2% DMSO, with 1 mM reducing agent where applicable, at pH 8.0. […] FP was measured using an Infinite F500 plate reader (Tecan) and measurements were converted into percent inhibition according to […]

[2] = molecular target: STAT3 (Homo sapiens, UniProt P40763); experiment: HTRF assay, STAT3; design: the endogenous full‐length proteins (between 748 and 793 amino acids for STAT3/4/5a/5b); endogenous in cells; host or cells: NK-92 cells (DSMZ), whole-cell lysate; conditions: STAT3 110 nM, without reducing agent, 1 h
Sequence of STAT3 (P40763 whole entry, species assumed): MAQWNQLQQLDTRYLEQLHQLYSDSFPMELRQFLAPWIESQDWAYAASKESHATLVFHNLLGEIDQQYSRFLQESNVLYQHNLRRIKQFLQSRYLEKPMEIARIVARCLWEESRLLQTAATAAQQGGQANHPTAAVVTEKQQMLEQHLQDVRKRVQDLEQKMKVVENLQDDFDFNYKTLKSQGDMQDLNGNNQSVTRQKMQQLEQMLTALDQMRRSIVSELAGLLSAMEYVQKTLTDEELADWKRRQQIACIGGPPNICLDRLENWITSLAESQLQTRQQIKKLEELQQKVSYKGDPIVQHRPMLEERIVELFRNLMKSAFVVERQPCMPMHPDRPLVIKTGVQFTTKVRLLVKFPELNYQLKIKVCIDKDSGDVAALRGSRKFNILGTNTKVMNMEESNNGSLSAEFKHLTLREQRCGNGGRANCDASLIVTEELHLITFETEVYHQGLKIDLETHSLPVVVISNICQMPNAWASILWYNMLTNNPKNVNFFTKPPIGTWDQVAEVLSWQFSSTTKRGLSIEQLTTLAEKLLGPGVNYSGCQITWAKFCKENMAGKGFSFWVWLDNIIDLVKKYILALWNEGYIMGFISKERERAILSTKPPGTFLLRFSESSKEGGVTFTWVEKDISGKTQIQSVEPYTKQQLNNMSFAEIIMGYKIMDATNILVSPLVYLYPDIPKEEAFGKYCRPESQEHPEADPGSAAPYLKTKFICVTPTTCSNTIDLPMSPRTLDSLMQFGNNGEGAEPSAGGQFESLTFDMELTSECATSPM
Experimental: In addition, an HTRF assay was established for STAT3, one of the STAT proteins targeted to a lesser extent in FP assays, as a specificity control (Figure 1B,C). […] A Tb^3+‐cryptate fused to an anti‐6x‐His antibody was chosen as the long‐lived fluorescent donor, while the carboxyfluorescein linked to the respective STAT‐binding peptides served as the acceptor (Figure 2A). Emission was measured with a time delay of 60 μs after excitation, allowing any initial compound fluorescence to decay beforehand.
Homogenous time-resolved fluorescence (HTRF) assays for STAT3, STAT4, STAT5a and STAT5b were carried out using Cisbio Monoclonal Antibody Anti-6His-Tb Gold as the fluorescence donor (Perkin Elmer) and the corresponding CF-labelled binding peptide as the acceptor. Protein at 110 nM (STAT3), 30 nM (STAT4), 110 nM (STAT 5a) or 80 nM (STAT5b) was combined with terbium-labelled antibody at the recommended concentration, 150 nM CF-labelled peptide and compound as indicated, and incubated at room temperature for 1 h. […] Fluorescence /luminescence was measured in Proxiplate 384-well plates (Perkin Elmer), using a 340 nm excitation filter with 520 nm and 620 nm emission filters, with 60 µs time delay. The average reading from 3 wells was obtained. After subtraction of the blank (buffer only) from each reading, the ratio of the 520 nm / 620 nm readings was calculated. […]

[3] = molecular target: T2, STAT4 (Homo sapiens, UniProt Q14765); experiment: Competitive fluorescence polarization (FP) assay, STAT4
T2 sequence (Q14765 1-748): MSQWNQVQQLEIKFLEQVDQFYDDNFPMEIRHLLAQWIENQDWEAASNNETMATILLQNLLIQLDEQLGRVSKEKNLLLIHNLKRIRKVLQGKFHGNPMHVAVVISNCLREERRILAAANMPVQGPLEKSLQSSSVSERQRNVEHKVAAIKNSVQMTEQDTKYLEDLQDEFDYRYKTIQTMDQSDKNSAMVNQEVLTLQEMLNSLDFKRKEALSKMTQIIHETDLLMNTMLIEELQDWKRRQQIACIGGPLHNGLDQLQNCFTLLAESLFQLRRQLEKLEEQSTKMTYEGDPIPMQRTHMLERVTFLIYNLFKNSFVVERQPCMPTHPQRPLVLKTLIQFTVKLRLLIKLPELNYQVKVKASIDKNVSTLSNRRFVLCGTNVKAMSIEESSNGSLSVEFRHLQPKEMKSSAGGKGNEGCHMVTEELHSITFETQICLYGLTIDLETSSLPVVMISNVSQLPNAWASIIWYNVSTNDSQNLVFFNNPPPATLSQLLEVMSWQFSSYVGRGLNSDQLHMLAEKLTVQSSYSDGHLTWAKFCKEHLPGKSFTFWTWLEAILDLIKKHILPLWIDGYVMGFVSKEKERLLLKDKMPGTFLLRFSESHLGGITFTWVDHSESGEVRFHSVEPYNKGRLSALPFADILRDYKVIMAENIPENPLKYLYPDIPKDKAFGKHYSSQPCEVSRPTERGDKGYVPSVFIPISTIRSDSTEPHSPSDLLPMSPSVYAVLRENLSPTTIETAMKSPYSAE
Experimental: Screening of chemical libraries […]
PPADS was purchased […]
from Sigma-Aldrich, and iso-PPADS from Bio-Techne.
as §1, §2
CFGp[…]-OH. Proteins were used at a final concentration representing the approximate Kd value for binding of the corresponding peptide to the protein, namely 65 nM for STAT1, 65 nM for STAT3, 35 nM for STAT4, 125 nM for STAT5a, 65 nM for STAT5b and 75 nM for STAT6. Assays were carried out in buffer containing 10 mM Tris/HCl, 50 mM NaCl, 1 mM EDTA, 0.1% NP-40 substitute and 2% DMSO, with 1 mM reducing agent where […]
applicable, at pH 8.0. […]
before adding peptide and incubating for a further 1 h. FP was measured using an Infinite F500 plate reader (Tecan) and measurements were converted into percent inhibition according to […]

[4] = no reducing agent, 1 h, read-out: IC50 STAT4 (FP assay)

| SMILES | IC50 ([1]; no reducing agent, 1 h) [nM] | IC50 [2] [nM] | IC50 ([3]; IC50 STAT4 (FP assay), 1 mM DTT, 1 hr) [nM] | IC50 ([3]; IC50 STAT4 (FP assay), 1 mM DTT, 2 hr) [nM] | IC50 ([3]; IC50 STAT4 (FP assay), 1 mM DTT, 3 hr) [nM] | IC50 ([3]; IC50 STAT4 (FP assay), 1 mM DTT, 4 hr) [nM] | IC50 ([3]; IC50 STAT4 (FP assay), 1 mM TCEP, 1 hr) [nM] | IC50 ([3]; IC50 STAT4 (FP assay), 1 mM TCEP, 2 hr) [nM] | IC50 ([3]; IC50 STAT4 (FP assay), 1 mM TCEP, 3 hr) [nM] | IC50 ([3]; IC50 STAT4 (FP assay), 1 mM TCEP, 4 hr) [nM] | IC50 [3, 4] [nM] | IC50 ([3]; no reducing agent, 2 hr, read-out: IC50 STAT4 (FP assay), no reducing agent) [nM] | IC50 ([3]; no reducing agent, 3 hr, read-out: IC50 STAT4 (FP assay), no reducing agent) [nM] | IC50 ([3]; no reducing agent, 4 hr, read-out: IC50 STAT4 (FP assay), no reducing agent) [nM] | inhibition at 100 µM ([1]; at 100 μM, the highest concentration tested) [%] |
| --- | --- | --- | --- | --- | --- | --- | --- | --- | --- | --- | --- | --- | --- | --- | --- |
| Cc1nc(/N=N/c2ccc(S(=O)(=O)O)cc2S(=O)(=O)O)c(COP(=O)(O)O)c(C=O)c1O [PPADS, pyridoxalphosphate‐6‐azophenyl‐2',4'‐disulfonic acid] | 87400 ± 6600 | 29600 ± 4000 | 1700 ± 300 | 2500 ± 400 | 3700 ± 600 | 4900 ± 900 | 2400 ± 300 | 2400 ± 200 | 2500 ± 400 | 2800 ± 500 | 2200 ± 200 | 2400 ± 300 | 2600 ± 300 | 2400 ± 100 |  |
| Cc1nc(/N=N/c2cc(S(=O)(=O)O)ccc2S(=O)(=O)O)c(COP(=O)(O)O)c(C=O)c1O [iso‐PPADS] |  | 31900 ± 4000 |  |  |  |  |  |  |  |  | 1900 ± 200 |  |  |  | 41 ± 0.4 |

— article PMC12442245, “Activity Analysis of the P2X Receptor Antagonist PPADS against Signal Transducer and Activator of Transcription Proteins” (Chembiochem, 2025)
